From patent US8506964B2, “Fusion proteins and related compositions, methods and systems for treatment and/or prevention of atherosclerosis” (priority 2010, dated 2013)

Experiments:
[1] = tested on: apo E −/− mice; assay: Subcutaneous immunization of apo E −/− mice with peptide test articles, plaque size in en face aorta; type: in vivo
Description: Inhibition of atherosclerosis in apo E −/− mice by immunization with fifteen different test articles based on fifteen different peptide fragments of apo B was investigated.
In these experiments, apo E −/− mice received primary subcutaneous immunization at 6-7 weeks of age, followed by two boosters administered […]. The mice were fed a high cholesterol diet from 1 week after the second injection (10 weeks of age) and continued until sacrifice at 25 weeks of age. The effect of immunization on atherosclerosis formation was assessed by measuring plaque size (percent area stained with Oil Red O) in an en face preparation of the aorta.
Based on the results from these and other experiments, four peptides were identified as particularly effective in reducing the progression of atherosclerosis.

[2] = tested on: mouse LDL; assay: ELISA of sera for antibodies to mouse LDL; type: in vivo; conditions: parenteral immunization; data not shown
Method: ELISA methods were used to quantitate serum Ig isotypes specific for the apoB-100 peptide as well as total IgG and IgM as previously described (ref. 19). Sera from immunized mice were tested for antibodies to mouse LDL by incubation (1/50, 1/150 and 1/450 dilutions) in plates coated with mouse LDL (10 μg/ml) and using alkaline phosphatase-conjugated anti-mouse-IgG as detector antibody. Sera from C57BL/6 mice immunized with OVA-CTB were assayed for reactivity to mouse or human LDL, or to apoB100, at dilutions of 1/25, 1/250 and 1/2500.

[3] = subcutaneous immunization at 6-7 weeks, boosters 3 and 5 weeks later, high cholesterol diet, plaque size (percent area Oil Red O) at 25 weeks

Row | Substance | Reduction in atherosclerosis progression [1, 3] | further results
1 | ATRFK HLRKY TYNYE AESSS (ATRFKHLRKYTYNYEAESSS; Apolipoprotein B-100; UniProt P04114 43-62, looked up, fragment) [Peptide P2] | (−42%, p < 0.05) | 
2 | KTTKQ SFDLS VKAQY KKNKH (KTTKQSFDLSVKAQYKKNKH) [Peptide P210] | (−49%, p = 0.06) | 
3 | IEIGL EGKGF EPTLE ALFGK (IEIGLEGKGFEPTLEALFGK) [Peptide P45] | (−53%, p < 0.05) | 
4 | ovalbumin |  | IgG antibody responses to mouse LDL [2]: did not lead to induction of significant IgG antibody responses
5 | SLTST SDLQS GIIKN TASLK [Peptide P102] |  | Reduction in atherosclerosis progression ([1]; mouse, in vivo, sc): (−52%, p < 0.05)
